From ChEMBL document CHEMBL1129564, “Tyrosine kinase inhibitors. 10. Isomeric 4-[(3-bromophenyl)amino]pyrido[d]-pyrimidines are potent ATP binding site inhibitors of the tyrosine kinase function of the epidermal growth factor receptor” (J Med Chem, 1996) come the findings set out here.

T1 sequence (P00533 whole entry): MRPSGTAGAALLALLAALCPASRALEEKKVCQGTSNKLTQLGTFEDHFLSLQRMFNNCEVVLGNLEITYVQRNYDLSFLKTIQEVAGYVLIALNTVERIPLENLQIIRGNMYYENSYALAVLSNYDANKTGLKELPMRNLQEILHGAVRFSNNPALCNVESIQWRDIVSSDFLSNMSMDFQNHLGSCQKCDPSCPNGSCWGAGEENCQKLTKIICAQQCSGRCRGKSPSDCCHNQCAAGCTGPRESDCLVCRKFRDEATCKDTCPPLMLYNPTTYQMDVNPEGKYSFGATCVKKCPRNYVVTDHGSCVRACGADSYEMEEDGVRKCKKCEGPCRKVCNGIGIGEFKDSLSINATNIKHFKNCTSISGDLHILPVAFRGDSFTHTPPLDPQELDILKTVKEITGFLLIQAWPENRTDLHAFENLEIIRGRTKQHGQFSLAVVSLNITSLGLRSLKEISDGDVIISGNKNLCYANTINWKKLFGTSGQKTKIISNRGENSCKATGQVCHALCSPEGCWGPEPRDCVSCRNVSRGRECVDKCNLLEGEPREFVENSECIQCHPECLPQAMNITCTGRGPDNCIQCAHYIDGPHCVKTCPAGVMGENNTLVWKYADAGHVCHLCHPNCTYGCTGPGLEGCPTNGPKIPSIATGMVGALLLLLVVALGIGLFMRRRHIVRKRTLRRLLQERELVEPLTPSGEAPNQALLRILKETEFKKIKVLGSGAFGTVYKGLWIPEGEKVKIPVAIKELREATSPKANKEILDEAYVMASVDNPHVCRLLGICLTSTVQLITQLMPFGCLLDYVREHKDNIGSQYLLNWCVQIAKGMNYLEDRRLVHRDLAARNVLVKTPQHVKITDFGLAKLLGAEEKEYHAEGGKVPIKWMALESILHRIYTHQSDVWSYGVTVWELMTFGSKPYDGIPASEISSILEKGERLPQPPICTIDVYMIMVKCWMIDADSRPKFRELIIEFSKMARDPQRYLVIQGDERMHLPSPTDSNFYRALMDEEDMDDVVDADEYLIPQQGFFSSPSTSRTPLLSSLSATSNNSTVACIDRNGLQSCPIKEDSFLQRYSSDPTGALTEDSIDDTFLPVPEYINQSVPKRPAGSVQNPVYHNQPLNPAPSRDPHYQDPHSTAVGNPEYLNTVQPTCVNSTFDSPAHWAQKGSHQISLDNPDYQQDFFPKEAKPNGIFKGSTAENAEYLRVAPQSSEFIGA

One experiment addresses T1, Epidermal growth factor receptor (Homo sapiens, UniProt P00533). The experiment can be described thus: Inhibition of Epidermal growth factor receptor autophosphorylation in A431 human epidermoid carcinoma cells.
In the case of `Nc1cc2ncnc(NCc3ccccc3)c2cn1`, 2080 nM corresponded to half-maximal inhibition (IC50). This lies in the single-digit micromolar range.
With `CN(C)c1ccc2c(Nc3cccc(Br)c3)ncnc2n1`, half-maximal inhibition (IC50) required 2300 nM.
`Nc1cc2c(Nc3cccc(Br)c3)ncnc2cn1`: the IC50 amounted to 16 nM. This IC50 is about 140-fold lower than that of the molecule before.
Take `CN(C)c1cc2ncnc(Nc3cccc(Br)c3)c2cn1`: the IC50 was determined as 14 nM. The IC50 values of the last two molecules are within 1.5-fold of each other.
In turn, `CNc1cc2c(Nc3cccc(Br)c3)ncnc2cn1` displayed an IC50 of 15 nM.
For the molecule `CNc1cc2ncnc(Nc3cccc(Br)c3)c2cn1`, 16 nM corresponded to half-maximal inhibition (IC50).

The target in the next experiment is T1, Epidermal growth factor receptor. Kind of experiment: biochemical.
Description: Inhibitory potency against isolated epidermal growth factor receptor (EGFR) from human A431 carcinoma cells
As for `Clc1ccc2ncnc(Nc3cccc(Br)c3)c2n1`, 18 nM corresponded to half-maximal inhibition (IC50).
`Fc1ccc2c(Nc3cccc(Br)c3)ncnc2n1` registered an IC50 of 684 nM.
As for `CNc1ccc2cncnc2c1`, the IC50 turned out to be 4 nM. Compared with the last molecule, the IC50 is about 170-fold lower.
Turning to `COc1ccc2cncnc2c1`, the IC50 came to 10 nM.
In turn, `CN(C)c1ccc2c(Nc3cccc(Br)c3)ncnc2n1` yielded an IC50 of 324 nM.
The same measure, in the same setting: next, `COc1ccc2ncnc(Nc3cccc(Br)c3)c2n1`: 4.3 nM.
In turn, `Brc1cccc(Nc2ncnc3cnccc23)c1` showed an IC50 of 51 nM.
Consider `c1ccc(CNc2ncnc3cnccc23)cc1`, for which it took 2030 nM to reach half-maximal inhibition (IC50).
The same measure, in the same setting: next, `Nc1cc2c(Nc3cccc(Br)c3)ncnc2cn1`: 0.13 nM.
Same read-out and setting: next, `COc1ccc2ncncc2c1`: 30 nM; `Brc1cccc(Nc2ncnc3ccncc23)c1`: 35 nM.
Take `CN(C)c1ccc2cncnc2c1`: half-maximal inhibition (IC50) was put at 11 nM. Against the preceding molecule, the IC50 is about 3.2-fold lower.
Same read-out and setting: next, `CNC1=CC2N=CN(C)/C(=N\c3cccc(Br)c3)C2C=N1` (configuration not stated): 3.1 nM.
Turning to `COc1ccc(CNc2cc3c(Nc4cccc(Br)c4)ncnc3cn2)cc1`, half-maximal inhibition (IC50) was put at 2.3 nM.
Same read-out and setting: next, `Nc1ccc2ncncc2c1`: 0.79 nM; `c1ccc(CNc2ncnc3cccnc23)cc1`: 603 nM.
In turn, `CNc1ccc2ncncc2c1` displayed a concentration for half-maximal inhibition (IC50) of 7 nM.
Molecule `CNc1cc2c(Nc3ccccc3)ncnc2cn1` registered an IC50 of 9 nM.
On to `c1ccc(CNc2ncnc3ncccc23)cc1`, for which the IC50 is above 10000 nM.
Same read-out and setting: next, `Brc1cccc(Nc2ncnc3ncccc23)c1`: 688 nM; `c1ccc(CNc2ncnc3ccncc23)cc1`: 1460 nM; `Fc1ccc2ncnc(Nc3cccc(Br)c3)c2n1`: 44 nM.
On the same count and under the same terms, next, `Brc1cccc(Nc2ncnc3cccnc23)c1`: 34 nM; `CN(C)c1ccc2ncncc2c1`: 120 nM.
Still for that read-out and setting: next, `Nc1ccc2cncnc2c1`: 0.1 nM; `c1ccc2ncncc2c1` [QUINAZOLINE]: 27 nM.

Broadly, the IC50 is the concentration that inhibits the measured activity by half. Read a high IC50 as weaker potency.
